Results: patent US20100310530A1, “Cell Therapy for Brain Tissue Damage” (StemCyte Inc., priority 2009, published 2010)

How the values were obtained:
[1] = system: Epac1; assay: Western blot of Epac1 in hUCB^34 cells after hypoxia preconditioning or DFX; format: cell-based, human; settings: cells treated with DFX, under either hypoxic or normoxic conditions
Procedure: (§1) hUCB^34 cells (1×10^6/mL) were cultured in a StemSpan SFEM medium (StemCell Technologies, Vancouver, Canada) at 37° C. in 5% CO2-humidified incubators in normoxic (20% O2) or hypoxic (1% O2) conditions as previously described (Ivanovic et al., 2000, Br J Haematol 108:424-429). Hypoxic cultures were cultivated in a two-gas incubator (Jouan, Winchester, Va., USA) equipped with an O2 probe to regulate N2 levels. Cell number and viability were evaluated using trypan blue exclusion assay. For flowcytometry, cells were incubated with anti-human CD34 (Miltenyi Biotec, Gladbach, Germany) and then analyzed on a FACSCalibur flow cytometer (Becton, Dickinson and Co.). To produce chemical hypoxia, cells were treated in a medium containing […] of Desferrioxamine (DFX, Sigma-Aldrich, MO) that mimics hypoxic conditions by inhibiting the hydroxylation of a prolyl residue that is essential for the ubiquitination of HIF-1α (Schioppa et al., 2003, J Exp Med 198:1391-1402). […] The intensity of each band was measured using a Kodak Digital Science 1D Image Analysis System (Eastman Kodak, Rochester, N.Y.). The ratio of band intensity of Western blots in comparison with the internal control was calculated. Results were expressed as the mean value of the ratio±SEM for preparations.

[2] = system: hypoxia-inducible factor-1α (HIF-1α); assay: Western blot of HIF-1α in HP- and DFX-treated hUCB^34 cells; format: cell-based, human; settings: HP- and DFX-treated hUCBs^34
Procedure: as §1

[3] = system: cerebral ischemia rats; assay: Neurological behavioral measurements after cerebral ischemia (MCA ligation); format: in vivo, rat; settings: GM6001 ip after HP-hUCB^34 implantation, or brefeldin A-incubated HP-hUCB^34; vs vehicle control
Procedure: (§2) Experimental rats and mice were divided into three groups (FIG. 2A): Intracerebral transplantation of hUCB^34 with HP (HP-hUCB^34), intracerebral transplantation of hUCB^34 without HP (hUCB^34), and a vehicle-control group. All transplantation took place on day 7. The HP-hUCB^34 group was treated in 1% O2 hypoxic conditions for 20-24 hours. Cerebral ischemia was induced in every experimental rat on day 0. At 7 days after cerebral ischemia, experimental rats in the two intracerebral hUCB^34 transplantation groups were injected stereotaxically with approximately 2×10^5 cells of hUCB^34 labeled with bis-benzimide in a 3-5 μL PBS suspension through a 26- or 30-gauge Hamilton syringe into 3 cortical areas, 3.0 to 5.0 mm (2.0 to 3.0 mm for mice) below the dura. The approximate coordinates for these sites were 1.0 to 2.0 mm (0 to 1.0 mm for mice) anterior to the bregma and 3.5 to 4.0 mm (2.0 to 2.5 mm for mice) lateral to the midline, 0.5 to 1.5 mm (0 to 1.0 mm for mice) posterior to the bregma and 4.0 to 4.5 mm (2.0 to 3.5 mm for mice) lateral to the midline, and 3.0 to 4.0 mm (1.5 to 2.5 mm for mice) posterior to the bregma and 4.5 to 5.0 mm (2.0 to 3.0 mm for mice) lateral to the midline. The needle was retained in place for 5 minutes after each injection and a piece of bone wax was applied to the skull defects to prevent leakage of the injected solution. […]

[4] = system: ischemic rat brains; assay: Cell engraftment and neural differentiation in ischemic brain (immunofluorescent colocalization); format: in vivo; settings: injection of GM6001 or brefeldin A-pretreatment of cells
Procedure: as §2

[5] = system: cerebral ischemic rats; assay: Neurite regeneration in vivo in cerebral ischemic rats; parameters: species or system rat; settings: cells incubated with 10 μg/mL brefeldin A
Procedure: Experimental rats and mice were divided into three groups (FIG. 2A): Intracerebral transplantation of hUCB^34 with HP (HP-hUCB^34), intracerebral transplantation of hUCB^34 without HP (hUCB^34), and a vehicle-control group. All transplantation took place on day 7. The HP-hUCB^34 group was treated in 1% O2 hypoxic conditions for 20-24 hours. Cerebral ischemia was induced in every experimental rat on day 0. At 7 days after cerebral ischemia, experimental rats in the two intracerebral hUCB^34 transplantation groups were injected stereotaxically with approximately 2×10^5 cells of hUCB^34 labeled with bis-benzimide in a 3-5 μL PBS suspension through a 26- or 30-gauge Hamilton syringe into 3 cortical areas, 3.0 to 5.0 mm (2.0 to 3.0 mm for mice) below the dura. […]
Measurement of neurite regeneration was performed as described earlier (Cafferty et al., 2004, J Neurosci 24:4432-4443). […] For quantification analysis, neurons with processes greater than twice the cell body diameter were counted as neurite-bearing cells. The length of the longest neurite of each neuron was measured from digitized images and quantified using imaging analysis software (SigmaScan 4.01.003).

Compound | levels of Epac1 versus control cells [1] | protein level of HIF-1α [2] | neurological behavior recovery after HP-hUCB^34 implantation in presence of inhibitor [3] | number of engrafted cells in HP-hUCB^34-treated rats with inhibitor [4] | neurite regeneration after transplantation of brefeldin A-incubated HP-hUCB^34 [5]
CC(=O)N(O)CCCCCNC(=O)CCC(=O)N(O)CCCCCNC(=O)CCC(=O)N(O)CCCCCN [DFX, Desferrioxamine] | much higher levels of Epac1 than control cells | increase in the protein level |  |  | 
C[C@H]1CCC/C=C/[C@@H]2C[C@H](O)C[C@H]2[C@H](O)/C=C/C(=O)O1 [brefeldin A] |  |  | down-regulated to the same extent as that of control group | diminished | could not promote the neurite regeneration
CNC(=O)[C@H](Cc1c[nH]c2ccccc12)NC(=O)[C@@H](CC(=O)NO)CC(C)C [GM6001] |  |  | almost no recovery | diminished | 
